# Source: US20240000789A1, “THERAPEUTIC COMBINATIONS COMPRISING A CRAF INHIBITOR” (NOVARTIS AG, priority 2020, published 2024)
# Like-named read-outs stand apart in the source and are kept apart here. Marks after values point to notes of the source that are not given here.
# System: SKMEL-30 human melanoma xenograft (NRASQ61K/BRAFD287H)
# Settings: day 34 post implantation; for % Tumor Regression: LXH254 25 mg/kg p.o. bid, combination 25 bid + trametinib 0.15 qd
# Description: The animals were handled in accordance with Novartis ACUC regulations and guidelines.
# The SKMEL-30 human melanoma tumor cell lines were purchased from ATCC and were included in the Novartis Cell Line Encyclopedia (CLE) cell line collection.
# Treatments were administered at a dose volume of 10 mL/kg. Mice were randomized into treatment groups on day 12 following, tumor implantation, when the average tumor volume was 190 mm^3.
# Tumor Volume: Percent treatment/control (%T/C) values were calculated using the following formula:
# %Regression=100×ΔT/Tinitial if ΔT<0
# T=mean tumor volume of the drug-treated group on the final day of the study;
# ΔT mean tumor volume of the drug-treated group on the final day of the study—mean tumor volume of the drug-treated group on initial day of dosing;
# Tinitial=mean tumor volume of the drug-treated group on initial day of dosing;
# C=mean tumor volume of the control group on the final day of the study; and
# VC=mean tumor volume of the control group on the final day of the study mean tumor volume of the control group on initial day of dosing.
# All data were expressed as mean±standard error of the mean (SEM). Between groups, comparisons were carried out using Kruskal-Wallis non-parametric ANOVA with Dunn's post-hoc test. For all statistical evaluations the level of significance was set at p<0.05.
# Significance compared to the vehicle control group is reported unless otherwise stated. Survival analysis was generated by recording the day at which a mouse in each group reached a tumor burden of approximately 700 mm^3. Between group comparison of survival curves were carried out using Log Rank (Mantel cox) test.
# [1] = LXH254 25 bid, trametinib 0.3 qd, combination 25 bid +0.15 qd (mg/kg p.o.)
smiles,measurement,setting,value
"Cc1ccc(NC(=O)c2ccnc(C(F)(F)F)c2)cc1-c1cc(OCCO)nc(N2CCOCC2)c1 [Compound A, N-(3-(2-(2-hydroxyethoxy)-6-morpholinopyridin-4-yl)-4-methylphenyl)-2-(trifluoromethyl)isonicotinamide]",% Tumor Regression,,5%
same,% Tumor Regression,25 mg/kg,5* %
same,Change in body weight (%) Mean +/− SEM,[1],1.43 ± 1.29%
same,Change in tumor volume (mm3) Mean+/−SEM,[1],−11.71 mm3
same,Survivor (Survivors/total),[1],9/9
